Data: patent US12285437B2 (The Research Foundation for The State University of new York, priority 2019, dated 2025)
Like-named read-outs stand apart in the source and are kept apart here. Values belong to the molecule of their own block, whether it stands above or below them.

Experiments:
[1] = HPLC assay of Dox release from DMA prodrugs 2/4/6 at different pH values; format: physicochemical; conditions: 37° C., pH 7.4, 10 h
Protocol: The pH-dependence of drug release from Dox-DMA prodrugs as followed in HPLC assays. To test the pH-sensitivity of drug release, solutions of a DMA prodrug were adjusted to have pH values between 6.0 and 7.4. […] The HPLC rans were carried out with pH 8 solvents so that the DMA prodrug would not decompose during the HPLC analysis. Areas under the peaks were integrated to give the percentages.
The pH of the DMA prodrug solution was adjusted to different pH values in the range of pH 7.4-6.0. […] Representative HPLC traces are shown in ESI FIGS. S24-S29 (see these figures and their captions for more detailed information).

ES2 cells = experiment: Imaging studies (confocal microscopy); format: cell-based, human
Protocol: Afterwards, the treatment solution was removed; the nuclei of the cells were labeled with staining dye Hoechst 33342; and then images were taken on a scanning confocal microscope.
Imaging studies (confocal microscopy). Approximately 8,000 ES2 cells were seeded on a colIagen-coated glass dish (MatTek Corporation, part No. P35GCOL-0-10-C) and cultured in McCoy's 5A medium with 10% fetal bovine serum and 1% penicillin-streptomycin at 37° C. in the incubator (5% CO2) overnight. […] After treatment solution was removed, the cells were washed 1× with 100 μL of DMEM/F12 pH-specific media. Prior to fluorescence imaging, the nuclei of cells were stained with 1 μg/mL Hoechst 33342 in PBS for 20 min at 37° C. in the incubator. Afterwards, cells stayed in pH-specific DMEM/F12 media during imaging. […] The images in FIGS. 33-36 were processed using LAS X and ImageJ.

[2] = test system: MDA-MB-231 human breast cancer cells
Protocol: (§1) pH-dependent anti-proliferation assays with cells. In 96-well plates, ˜3,000 cells were seeded per well then grown for 24-48 hr until 30-40% confluency. […] For serum effect cell plate data shown in FIG. 5I, cell viability was measured using alamar Blue assay (i.e., growth media was replaced with 45 μL of pH 7.4 DMEM/F-12 media without phenol red, 5 μL of alamar Blue reagent (10×) was added; fluorescence at 590 nm was recorded after excitation at 560 nm at 1 hr afterwards).
(§2) The reaction solution was allowed to stand at rt for 1 hr in the dark, during which the pH decreased to ˜9.6. After 1 hr, the reaction solution was split into two 50-μL portions (for pH 7.4 vs. pH 6.2-6.8 cell experiments). The pH of one portion was adjusted to pH 8 (for pH 7.4 cell experiments) or pH 7 (for pH 6.2-6.8 cell experiments). Subsequently, the solution was diluted 30-fold (to 10 μM) with pH 7.4 or pH 6.2-6.8 cell media (final volume 1.5 mL) and then filtered (0.2 micron) before used in cell experiments.

[3] = test system: NIH:OVCAR3 human ovarian cancer cells
Protocol: as §1, §2

[4] = test system: ES-2 human ovarian cancer cells; experiment: pH-dependent anti-proliferation assay (MTS; alamar Blue for FIG. 7I); conditions: for Cell Viability Average (Avg): FIG. 7A, ES-2, 6 hr
Text: pH-dependent anti-proliferation assays with cells.
NaOH to adjust the pH to 9.9.

ES2 ovarian cancer cells = experiment: Antiproliferation assays against ES2 cancer cells at different pH values; format: cell-based, human
Protocol: For cell experiments, a pH 8 or pH 10 (directly from DMI to DMA conversion) solution of DMA 2/4/6 was sterilized by filtering through a 0.2-micron membrane. […] At this point, small amounts of 10 (or 25) mM of sterile aq.
Antiproliferation assays against ES2 cancer cells at different pH values. […] Treatment solution volume was 50-100 μL per well, with a set volume per well for all wells in a plate.

[5] = test system: SKOV3 human ovarian cancer cells; conditions: FIG. 9A, 10 μM
Protocol: as §1, §2

[6] = test system: PC-3 human prostate cancer cells; conditions: FIG. 9B, PC3, […], 10 μM
Protocol: as §1, §2

- DMI formed [1]: 26%
Molecule: COc1cccc2c1C(=O)c1c(O)c3c(c(O)c1C2=O)C[C@@](O)(C(=O)CO)C[C@@H]3O[C@H]1C[C@H](N2C(=O)C(C)=C(CCC(=O)NCCSSC[C@H](N)C(=O)O)C2=O)[C@H](O)[C@H](C)O1 [Dox-DMI-Cys 5]

- DMI formed [1]: about 13%
Molecule: COc1cccc2c1C(=O)c1c(O)c3c(c(O)c1C2=O)C[C@@](O)(C(=O)CO)C[C@@H]3O[C@H]1C[C@H](N2C(=O)C(C)=C(CCC(=O)O)C2=O)[C@H](O)[C@H](C)O1 [Dox-DMI 1]
- Dox channel signal among the DMI byproducts (ES2 cells; ES2, 8 μM, 1 h): more signals
- Dox fluorescence signals in cells, pH 6.7 vs. 7.7 (ES2 cells; ES2, 1 h, 4 μM Dox or 8 μM prodrug/DMI): higher at pH 6.7 than 7.7

Molecule: Doxorubicin Disubstituted Maleamic Acid Glutathione Conjugate [Dox-DMA-GSH 8]
- higher potency than the free drug (3 μM) ([2]; MDA-MB231, 2-3 h, 6-8 μM prodrug, pHe 6.3-6.4): 2-3 ×
- pHe at which maximum effects were seen ([2]; MDA-MB231, pHe titration (FIG. 7F)): 6.5
- higher potency than the free drug (3 μM) ([3]; OVCAR3, 2-3 h, 6-8 μM prodrug, pHe 6.3-6.4): 2-3 ×
- pHe at which maximum effects were seen ([3]; OVCAR3, pHe titration (FIG. 7G)): 6.5
- fold more potent at pHe 6.7 (than at pHe 7.4) ([4]; ES-2, 6 h): ~2 fold
- potency of 1 mM of prodrug compared to 0.5 mM of free Dox ([4]; ES-2, 6 h, pHe 6.7): more potent
- pHe at which the maximum effect was reached ([4]; ES-2, pHe titration (FIG. 7E)): 6.8

Molecule: CC1=C(CCC(=O)N[C@@H](CCC(=O)O)C(=O)O)C(=O)OC1=O [byproduct 10, (3-(4-methyl-2,5-dioxo-2,5-dihydrofuran-3-yl)propanoyl)glutamic acid]
- cytotoxicity of anhydride byproduct of drug release (ES2 ovarian cancer cells; FIG. 30D, ES2, 3, 30 or 300 μM, pH 6.5-6.6 or 7.4-7.5, 3 h): not cytotoxic

Molecule: CC1=C(CCC(=O)O)C(=O)OC1=O [anhydride 7, 2-propionic-3-methylmaleic anhydride]
- cytotoxicity of anhydride byproduct of drug release (ES2 ovarian cancer cells; FIG. 29D, ES2, 2, 20 or 200 μM, pH 6.7-6.8 or 7.5-7.6, 2 h): harmless to cells
- cytotoxicity of anhydride byproduct of drug release (ES2 ovarian cancer cells; FIG. 29D, ES2, 2, 20 or 200 μM, pH 6.7-6.8 or 7.5-7.6, 2 h, listed as anhydride byproduct 7): not cytotoxic

Molecule: COc1cccc2c1C(=O)c1c(O)c3c(c(O)c1C2=O)C[C@@](O)(C(=O)CO)C[C@@H]3O[C@H]1C[C@H](N2C(=O)C(C)=C(CCC(=O)NCCSSC[C@H](NC(=O)CC[C@H](N)C(=O)O)C(=O)NCC(=O)O)C2=O)[C@H](O)[C@H](C)O1 [Dox-DMI-GSH 7, Doxorubicin Disubstituted Maleimide Glutathione Conjugate]
- Cell Viability Avg ([5]; pH 6.3-6.5): 75%
- Cell Viability Avg ([5]; pH 7.5-7.6): 63%
- toxicity compared to DMA 8 ([4]; ES-2, 6 h (FIG. 7A)): much less toxicity
- Cell Viability Average (Avg) ([4]; 0.5 μM, pH 6.6-6.8): 90%
- Cell Viability Average (Avg) ([4]; 0.5 μM, pH 7.2-7.5): 97%
- Cell Viability Average (Avg) ([4]; 1 μM, pH 6.6-6.8): 79%
- Cell Viability Average (Avg) ([4]; 1 μM, pH 7.2-7.5): 80%
- Cell Viability Avg ([6]; pH 6.3-6.4): 90%
- Cell Viability Avg ([6]; pH 7.5-7.6): 84%

Molecule: CC1=C(CCC(=O)NCCSSC[C@H](N)C(=O)O)C(=O)OC1=O [byproduct 12]
- cytotoxicity of anhydride byproduct of drug release (ES2 ovarian cancer cells; FIG. 31D, ES2, 2, 20 or 200 μM, pH 6.7 or 7.4-7.5, 2 h): did not show any cytotoxicity
- cytotoxicity of anhydride byproduct of drug release (ES2 ovarian cancer cells; FIG. 31D, ES2, 2, 20 or 200 μM, pH 6.7 or 7.4-7.5, 2 h, listed as anhydride 12): no cytotoxic effect
- cytotoxicity of anhydride byproduct of drug release (ES2 ovarian cancer cells; FIG. 31D, ES2, 2, 20 or 200 μM, pH 6.7 or 7.4-7.5, 2 h, listed as anhydride byproduct 12): not cytotoxic

- DMI formed [1]: 26%
Molecule: COc1cccc2c1C(=O)c1c(O)c3c(c(O)c1C2=O)C[C@@](O)(C(=O)CO)C[C@@H]3O[C@H]1C[C@H](N2C(=O)C(C)=C(CCC(=O)N[C@@H](CCC(=O)O)C(=O)O)C2=O)[C@H](O)[C@H](C)O1 [Dox-DMI-Glu 3]
